These results are taken from ChEMBL document CHEMBL2074133, “Effect of phenobarbital on the expression of bile salt and organic anion transporters of rat liver” (J Hepatol, 2001).

SMILES strings stand for the structures.

Holding throughout (type): functional, organism-based, Sprague-Dawley
Data set [1] deals with T1, Solute carrier organic anion transporter family member 1A1 (Rattus norvegicus, UniProt P46720).
T1 sequence (P46720 whole entry): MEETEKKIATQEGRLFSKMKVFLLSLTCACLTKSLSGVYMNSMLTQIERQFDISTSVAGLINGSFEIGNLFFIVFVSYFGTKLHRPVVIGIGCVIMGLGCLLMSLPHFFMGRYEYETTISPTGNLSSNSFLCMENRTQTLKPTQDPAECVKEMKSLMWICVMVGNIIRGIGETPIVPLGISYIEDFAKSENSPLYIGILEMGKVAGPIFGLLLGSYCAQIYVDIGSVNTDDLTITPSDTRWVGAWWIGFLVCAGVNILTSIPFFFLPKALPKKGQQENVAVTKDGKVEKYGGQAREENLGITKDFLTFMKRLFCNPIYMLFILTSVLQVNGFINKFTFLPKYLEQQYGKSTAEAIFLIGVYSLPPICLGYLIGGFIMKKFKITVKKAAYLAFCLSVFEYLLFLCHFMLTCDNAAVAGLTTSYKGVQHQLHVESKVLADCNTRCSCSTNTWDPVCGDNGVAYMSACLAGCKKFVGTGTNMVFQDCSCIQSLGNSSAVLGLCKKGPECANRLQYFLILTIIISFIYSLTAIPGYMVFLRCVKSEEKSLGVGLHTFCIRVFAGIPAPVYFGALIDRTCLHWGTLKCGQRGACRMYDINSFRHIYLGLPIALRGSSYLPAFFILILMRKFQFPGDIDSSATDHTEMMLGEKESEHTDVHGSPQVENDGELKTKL
The data set can be described thus: (§1) TP_TRANSPORTER: Western in vivo SD rat, liver.

The target in data set [2] is T2, Solute carrier organic anion transporter family member 1A4 (Rattus norvegicus, UniProt O35913).
T2 sequence (O35913 whole entry): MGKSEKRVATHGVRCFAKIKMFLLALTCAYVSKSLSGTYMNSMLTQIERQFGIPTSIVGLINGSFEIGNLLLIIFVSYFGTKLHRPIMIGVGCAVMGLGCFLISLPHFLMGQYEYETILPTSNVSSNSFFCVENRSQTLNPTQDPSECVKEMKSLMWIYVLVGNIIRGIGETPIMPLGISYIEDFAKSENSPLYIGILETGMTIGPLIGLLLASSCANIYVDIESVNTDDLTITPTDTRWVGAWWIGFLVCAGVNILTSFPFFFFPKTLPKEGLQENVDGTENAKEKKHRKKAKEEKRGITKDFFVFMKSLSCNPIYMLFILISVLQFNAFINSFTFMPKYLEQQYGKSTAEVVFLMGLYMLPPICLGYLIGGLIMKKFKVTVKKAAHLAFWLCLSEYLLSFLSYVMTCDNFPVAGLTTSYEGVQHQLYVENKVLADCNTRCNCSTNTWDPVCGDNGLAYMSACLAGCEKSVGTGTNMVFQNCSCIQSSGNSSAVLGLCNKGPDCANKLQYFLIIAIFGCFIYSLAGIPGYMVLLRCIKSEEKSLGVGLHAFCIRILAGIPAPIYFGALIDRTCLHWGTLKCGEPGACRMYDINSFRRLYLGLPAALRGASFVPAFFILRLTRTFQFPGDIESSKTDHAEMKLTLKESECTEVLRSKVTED
The data set is described as §1.

Data set [3] has as its target T1, Solute carrier organic anion transporter family member 1A1. The data set can be described thus: (§2) TP_TRANSPORTER: Northern blot in vivo SD rat, liver.
Data set [4] deals with T2, Solute carrier organic anion transporter family member 1A4. The data set is described as §2.

Regarding `CCC1(c2ccccc2)C(=O)NC(=O)NC1=O` [PHENOBARBITAL], the Activity entry was “is not an inducer [-]” in data set [1], “inducer [+]” in data set [2], “is not an inducer [-]” in data set [3] and “inducer [+]” in data set [4].
